# Data taken from patent US10175228B2, “Method of using transmembrane channel-like protein 6 (TMC6) protein to identify substances affecting salty taste” (priority 2016, dated 2019).
# Structures can show the parent of a compound that is named as a salt.
# System: wild-type C57BL/6J mouse and homo knockout mouse of the TMC6 gene
# Test: Palatability tests for taste substances other than NaCl, two-bottle method
# Format: in vivo
# Conditions: 48 hr, taste substance aqueous solution versus control aqueous solution
# Procedure: <Taste Substance Aqueous Solutions>
# MSG: 100 mM monosodium glutamate
# MSG+IMP: 100 mM monosodium glutamate+1 mM inosinic acid
# Citric Acid: 10 mM citric acid
# Quinine HCl: 0.3 mM quinine hydrochloride
# Fructose: 300 mM fructose
row,SMILES,difference in palatability or repellency between Tmc6 −/− mouse and wild-type mouse
1,"O=C(O)CC(O)(CC(=O)O)C(=O)O [Citric acid, citric acid]",No difference
2,"OC[C@H]1O[C@@](CO)(O[C@H]2O[C@H](CO)[C@@H](O)[C@H](O)[C@H]2O)[C@@H](O)[C@@H]1O [Sucrose, sucrose]",No difference
3,"O=C(CO)[C@@H](O)[C@H](O)[C@H](O)CO [Fructose, fructose]",No difference
4,"C=C[C@H]1C[N@@]2CC[C@H]1C[C@H]2[C@H](O)c1ccnc2ccc(OC)cc12 [Quinine HCl, quinine hydrochloride]",No difference
5,"N[C@@H](CCC(=O)O)C(=O)[O-].[Na+] [MSG, monosodium glutamate]",No difference

# Target: T1, mouse TMC6 protein (Mus musculus, UniProt Q7TN60, A788T)
# T1 construct: expressed in transfected cells; host or cells: CHO-K1
# T1 sequence (Q7TN60 1-810 A788T): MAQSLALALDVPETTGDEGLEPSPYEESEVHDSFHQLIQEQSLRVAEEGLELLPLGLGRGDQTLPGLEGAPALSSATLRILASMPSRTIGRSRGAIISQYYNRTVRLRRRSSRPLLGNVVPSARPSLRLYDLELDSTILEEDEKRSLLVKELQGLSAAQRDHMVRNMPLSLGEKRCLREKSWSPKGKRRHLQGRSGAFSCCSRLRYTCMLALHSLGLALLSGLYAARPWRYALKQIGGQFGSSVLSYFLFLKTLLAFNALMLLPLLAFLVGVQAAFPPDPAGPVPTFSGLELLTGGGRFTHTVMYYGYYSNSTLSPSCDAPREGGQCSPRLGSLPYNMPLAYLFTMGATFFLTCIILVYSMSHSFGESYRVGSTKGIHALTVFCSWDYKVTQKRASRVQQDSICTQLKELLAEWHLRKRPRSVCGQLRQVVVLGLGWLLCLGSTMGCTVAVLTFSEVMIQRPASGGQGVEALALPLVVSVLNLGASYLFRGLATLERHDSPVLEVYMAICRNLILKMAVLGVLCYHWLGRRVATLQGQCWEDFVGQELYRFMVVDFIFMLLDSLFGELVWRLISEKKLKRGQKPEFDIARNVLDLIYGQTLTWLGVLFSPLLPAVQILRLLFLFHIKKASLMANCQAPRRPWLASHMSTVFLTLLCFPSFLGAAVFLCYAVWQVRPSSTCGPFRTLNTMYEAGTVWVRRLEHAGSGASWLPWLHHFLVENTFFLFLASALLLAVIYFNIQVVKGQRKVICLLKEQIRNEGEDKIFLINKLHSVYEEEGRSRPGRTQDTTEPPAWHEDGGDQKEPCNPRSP
# Test: Calcium imaging (YC2.60 FRET) of CHO-K1 cells expressing the mouse TMC6 gene
# Format: cell-based
# Conditions: one typical TMC6-expressing cell, stimulation with ATP stimulation solution (50 μM ATP), FIG. 13C
# Procedure: CHO-K1 cells were transfected with TMC6-pcDNA3.1 or pcDNA3.1 in combination with YC2.60-pcDNA, to prepare TMC6-expressing cells (cells expressing the mouse TMC6 gene and the YC2.60 gene) and control cells (cells expressing the YC2.60 gene). The prepared cells were stimulated, and activation of the cells was measured. The procedure was as follows.
# That is, first, CHO-K1 cells (ATCC) were inoculated into a culture dish having a diameter of 60 mm while adjusting the number of the cells to obtain 60% confluence, and cultured for 8 hr. As the medium, 5 mL of Ham's F-12K (Kaighn's) (Life Technologies) containing 10% fetal bovine serum (Life Technologies) was used. A 15 μL aliquot of FuGENE 6 (Promega) was added to 235 μL of Opti-MEM (Thermo Fisher Scientific), and incubated for 5 min at a room temperature. Then, 0.625 μg of TMC6-pcDNA3.1 and 2.5 μg of YC2.60-pcDNA were further added thereto, and incubated for 15 min at a room temperature. Then, the whole of the resultant mixture was dropped into the culture broth of the CHO-K1 cells, and the culture broth was mildly stirred. Then, the cells were further cultured for 18 hr under a condition of 5% CO2 at 37° C., to obtain the TMC6-expressing cells. Similarly, the control cells were obtained through transfection using pcDNA3.1 instead of TMC6-pcDNA3.1.
# After the cultivation, the culture broth was removed. A low-concentration NaCl solution (27 mM NaCl, 1 mM KCl, 0.4 mM CaCl2, 0.2 mM MgCl2, 2 mM Hepes (pH7.3), 1 mM NaHCO3, 2 mM glucose, 2 mM sodium pyruvate, and 112 mM NMDG-Cl) was added to the culture dish, incubation was carried out statically for 5 min, and then, stimulation and observation of cells were started. First, the low-concentration NaCl solution was perfused for approximately 80 sec, to provide a ground state. Then, a high-concentration NaCl solution (135 mM NaCl, 1 mM KCl, 0.4 mM CaCl2, 0.2 mM MgCl2, 2 mM Hepes (pH7.3), 1 mM NaHCO3, 2 mM glucose, and 2 mM sodium pyruvate) was perfused instead of the low-concentration NaCl solution for approximately 60 sec, to stimulate the cells. […]
row,SMILES,relative FRET value (YFP/CFP) of the ROI-1 cell
1,Nc1ncnc2c1ncn2[C@@H]1O[C@H](COP(=O)(O)OP(=O)(O)OP(=O)(O)O)[C@@H](O)[C@H]1O [ATP],≥ 1.3
